Like-named read-outs stand apart in the source and are kept apart here.
Columns and labels:
human PI3Kα protein = molecular target: T1, human PI3Kα protein (Homo sapiens, UniProt P42336); test: PI3Kα enzyme assay (ADP-Glo); assay type: biochemical; conditions: read-out: PI3Kα enzyme inhibitory activity
T1 construct: purchased Carna Biosciences, Inc; host or cells: baculovirus expression system
Method in brief: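 Biotinylated human PI3Kα (baculovirus-expressed, 4.5 nmol/L) pre-incubated 15 min with compound in Tris-HCl pH 7.5, MgCl2, BSA; reaction 60 min at 25° C with 50 μmol/L PIP2 and 100 μmol/L ATP final. ADP quantified by ADP-Glo luminescence; IC50 calculated.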

[1] = molecular target: T2, GST fusion human ERK2 protein (Homo sapiens, UniProt P28482); test: ERK2 enzyme assay (2); assay type: biochemical; conditions: read-out: ERK2 enzyme inhibitory activity (2)
T2 construct: purchased Carna Biosciences, Inc; host or cells: E. coli expression system
T2 sequence (P28482 whole entry, the tested form may be a part): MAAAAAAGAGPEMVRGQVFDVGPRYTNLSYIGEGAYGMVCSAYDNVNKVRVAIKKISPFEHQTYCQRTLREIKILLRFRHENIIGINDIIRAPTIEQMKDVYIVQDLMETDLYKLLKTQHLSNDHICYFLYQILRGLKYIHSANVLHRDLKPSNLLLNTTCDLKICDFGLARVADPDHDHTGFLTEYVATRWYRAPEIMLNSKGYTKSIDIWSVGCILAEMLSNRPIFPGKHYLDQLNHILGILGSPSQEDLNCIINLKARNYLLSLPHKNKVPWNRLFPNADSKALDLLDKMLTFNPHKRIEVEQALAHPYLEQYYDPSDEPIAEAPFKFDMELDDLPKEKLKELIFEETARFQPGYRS
Method in brief: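 GST-tagged human ERK2 expressed in E. coli (1.25 nmol/L) was preincubated with compound for 15 min at room temperature in pH 7.5 Hepes buffer with MgCl2, DTT and Brij35. Reaction with FL-Peptide 8 (final 4.25 μmol/L) and ATP (final 1 mmol/L) ran 120 min at 25 °C; EDTA stopped it, and phosphorylated peptide was quantified by mobility-shift separation to derive IC50.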

T1 sequence (P42336 whole entry): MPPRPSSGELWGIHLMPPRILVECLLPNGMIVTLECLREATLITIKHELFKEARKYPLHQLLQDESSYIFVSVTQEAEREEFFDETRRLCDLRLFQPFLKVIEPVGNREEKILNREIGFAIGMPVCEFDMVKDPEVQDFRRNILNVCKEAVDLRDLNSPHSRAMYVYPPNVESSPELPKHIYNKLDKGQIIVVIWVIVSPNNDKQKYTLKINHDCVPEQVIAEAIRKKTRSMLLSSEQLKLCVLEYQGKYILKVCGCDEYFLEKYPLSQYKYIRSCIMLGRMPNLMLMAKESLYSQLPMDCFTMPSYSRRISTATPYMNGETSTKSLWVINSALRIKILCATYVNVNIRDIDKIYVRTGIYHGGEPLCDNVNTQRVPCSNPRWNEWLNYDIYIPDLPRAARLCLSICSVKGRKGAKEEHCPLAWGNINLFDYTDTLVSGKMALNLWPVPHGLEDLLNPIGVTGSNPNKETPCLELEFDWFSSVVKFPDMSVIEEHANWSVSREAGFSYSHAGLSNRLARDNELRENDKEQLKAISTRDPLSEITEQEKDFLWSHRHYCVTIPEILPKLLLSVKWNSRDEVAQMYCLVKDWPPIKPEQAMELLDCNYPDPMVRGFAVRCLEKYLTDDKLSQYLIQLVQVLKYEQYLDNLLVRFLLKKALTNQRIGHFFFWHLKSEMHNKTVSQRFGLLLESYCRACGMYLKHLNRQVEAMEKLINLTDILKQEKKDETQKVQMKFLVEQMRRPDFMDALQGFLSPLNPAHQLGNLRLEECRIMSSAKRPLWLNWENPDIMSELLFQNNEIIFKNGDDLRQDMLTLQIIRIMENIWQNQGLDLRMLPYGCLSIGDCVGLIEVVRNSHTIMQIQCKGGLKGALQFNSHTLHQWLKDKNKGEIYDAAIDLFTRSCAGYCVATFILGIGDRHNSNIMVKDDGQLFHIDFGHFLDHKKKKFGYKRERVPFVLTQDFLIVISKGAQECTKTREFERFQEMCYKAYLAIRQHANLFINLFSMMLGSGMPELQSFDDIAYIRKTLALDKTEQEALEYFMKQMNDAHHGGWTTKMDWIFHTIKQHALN
T1 sequence (P27986 whole entry partner): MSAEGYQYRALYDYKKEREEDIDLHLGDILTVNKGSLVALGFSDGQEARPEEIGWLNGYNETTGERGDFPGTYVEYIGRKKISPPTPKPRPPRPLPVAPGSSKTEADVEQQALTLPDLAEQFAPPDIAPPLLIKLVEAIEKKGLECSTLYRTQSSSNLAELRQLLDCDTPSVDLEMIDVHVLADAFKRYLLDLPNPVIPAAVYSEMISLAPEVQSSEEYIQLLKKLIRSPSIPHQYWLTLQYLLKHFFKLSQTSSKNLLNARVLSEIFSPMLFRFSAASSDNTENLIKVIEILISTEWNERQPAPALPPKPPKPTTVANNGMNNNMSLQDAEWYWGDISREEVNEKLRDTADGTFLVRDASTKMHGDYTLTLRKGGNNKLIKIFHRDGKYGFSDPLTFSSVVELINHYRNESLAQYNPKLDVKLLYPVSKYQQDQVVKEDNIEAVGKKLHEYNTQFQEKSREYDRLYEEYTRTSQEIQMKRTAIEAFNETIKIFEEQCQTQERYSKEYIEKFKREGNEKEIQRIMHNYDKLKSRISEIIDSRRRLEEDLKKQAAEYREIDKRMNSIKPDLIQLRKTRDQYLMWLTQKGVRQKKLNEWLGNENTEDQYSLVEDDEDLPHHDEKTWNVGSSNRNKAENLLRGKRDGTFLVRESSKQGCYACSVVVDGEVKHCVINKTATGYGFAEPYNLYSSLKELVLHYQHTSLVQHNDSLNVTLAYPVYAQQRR

Row | Compound | IC50 (human PI3Kα protein) | IC50 [1] | IC50 ([1]; ERK2 enzyme assay (2))
1 | COC1CN(c2nn(C)cc2-c2cnc3ccc(Nc4cc(C(C)C)cnn4)nc3c2)C1 [Example 0930] | < 1000 nM | < 1000 nM | –
2 | CC(C)c1cnnc(Nc2ccc3ncc(-c4cnn(CCCN5CCCCC5C(F)(F)F)c4)cc3n2)c1 (stereo not drawn) [Example 0672] | < 1000 nM | – | < 1000 nM
3 | CC(C)(O)c1cnnc(Nc2ccc3ncc(-c4cnn(CC5CCOCC5)c4)cc3n2)c1 [Example 0783] | < 1000 nM | – | < 1000 nM
4 | C=Cc1cnc2ccc(Nc3cc(C(C)C)cnn3)nc2c1 [Example 0638, N-(5-isopropylpyridazin-3-yl)-7-vinyl-1,5-naphthyridine-2-amine] | 1000 to 10000 nM | – | < 1000 nM
5 | CC(C)c1cnnc(Nc2ccc3ncc(-c4cnn(CC5CCN(C(=O)N6CCCC6)CC5)c4)cc3n2)c1 [Example 0539] | < 1000 nM | – | < 1000 nM
6 | Cn1cc(-c2cnc3ccc(Nc4cc(CC5CCCCC5)cnn4)nc3c2)cn1 [Example 0586] | < 1000 nM | – | < 1000 nM
7 | Cn1cc(-c2cnc3ccc(Nc4cc(C(C)(C)CO)cnn4)nc3c2)cn1 [Example 0560, 2-methyl-2-(6-((7-(1-methyl-1H-pyrazol-4-yl)-1,5-naphthyridin-2-yl)amino)pyridazin-4-yl)propan-1-ol] | < 1000 nM | – | < 1000 nM
8 | CC(C)Cc1cnnc(Nc2ccc3ncc(-c4cnn(C)c4)cc3n2)c1 [Example 0571] | < 1000 nM | – | < 1000 nM
9 | CC(C)c1cnnc(Nc2ccc3ncc(-c4cn(C)nc4NC4CCC4)cc3n2)c1 [Example 0939] | < 1000 nM | < 1000 nM | –
10 | CC(C)c1cnnc(Nc2ccc3ncc(N4CC5CCC(C4)O5)cc3n2)c1 [Example 0903] | < 1000 nM | < 1000 nM | –
11 | CN(C)c1cnnc(Nc2ccc3ncc(-c4cnn(C)c4)cc3n2)c1 [Example 0518] | < 1000 nM | – | < 1000 nM
12 | CC(C)c1cnnc(Nc2ccc3ncc(-c4cnn(CCN5C[C@H](C)O[C@@H](C)C5)c4)cc3n2)c1 [Example 0616, 7-(1-(2-((2S,6S)-2,6-dimethylmorpholino)ethyl)-1H-pyrazol-4-yl)-N-(5-isopropylpyridazin-3-yl)-1,5-naphthyridine-2-amine] | < 1000 nM | – | < 1000 nM
13 | CC(C)c1cnnc(Nc2ccc3ncc(-c4cn(C)nc4C4CCOCC4)cc3n2)c1 [Example 0772] | < 1000 nM | – | < 1000 nM
14 | Cc1ncccc1-c1cnc2ccc(Nc3cc(C(C)C)cnn3)nc2c1 [Example 0599] | 1000 to 10000 nM | – | < 1000 nM
15 | CC(C)c1cnnc(Nc2ccc3ncc(-c4cnn(CCC(=O)N5CCCCC5)c4)cc3n2)c1 [Example 0416] | < 1000 nM | – | < 1000 nM
16 | CC(C)c1cnnc(Nc2ccc3ncc(-c4cn(C)nc4-c4ccc(OCCN(C)C)cc4)cc3n2)c1 [Example 0774] | < 1000 nM | – | < 1000 nM
17 | CC(C)c1cnnc(Nc2ccc3ncc(-c4ncccn4)cc3n2)c1 [Example 0605] | < 1000 nM | – | < 1000 nM
18 | COCC(C)c1cnnc(Nc2ccc3ncc(-c4cn(C)nc4C)cc3n2)c1 (stereo not drawn) [Example 0786, 7-(1,3-dimethyl-1H-pyrazol-4-yl)-N-(5-(1-methoxypropan-2-yl)pyridazin-3-yl)-1,5-naphthyridine-2-amine] | < 1000 nM | – | < 1000 nM
19 | CC(C)c1cnnc(Nc2ccc3ncc(NC4CNC4)cc3n2)c1 [Example 0905, N^7-(azetidin-3-yl)-N^2-(5-isopropylpyridazin-3-yl)-1,5-naphthyridine-2,7-diamine] | 1000 to 10000 nM | 1000 to 10000 nM | –
20 | CC(C)c1cnnc(Nc2ccc3ncc(N4CC(NS(C)(=O)=O)C4)cc3n2)c1 [Example 0867] | < 1000 nM | – | < 1000 nM
21 | CC(C)c1cnnc(Nc2ccc3ncc(-c4cnn(Cc5ccccc5[N+](=O)[O-])c4)cc3n2)c1 [Example 0703, N-(5-isopropylpyridazin-3-yl)-7-(1-(2-nitrobenzyl)-1H-pyrazol-4-yl)-1,5-naphthyridine-2-amine] | < 1000 nM | – | < 1000 nM
22 | CC(C)c1cnnc(Nc2ccc3ncc(-c4cnn(CCN5C[C@@H](C)O[C@@H](C)C5)c4)cc3n2)c1 [Example 0617, 7-(1-(2-((2S,6R)-2,6-dimethylmorpholino)ethyl)-1H-pyrazol-4-yl)-N-(5-isopropylpyridazin-3-yl)-1,5-naphthyridine-2-amine] | < 1000 nM | – | < 1000 nM
23 | CC(C)c1cnnc(Nc2ccc3ncc(-c4cnn(CC5CN(C)CCO5)c4)cc3n2)c1 (stereo not drawn) [Example 0728, N-(5-isopropylpyridazin-3-yl)-7-(1-((4-methylmorpholin-2-yl)methyl)-1H-pyrazol-4-yl)-1,5-naphthyridine-2-amine] | < 1000 nM | – | < 1000 nM
24 | c1nnc(Nc2ccc3ncc(-c4cnn(CCOC5CNC5)c4)cc3n2)cc1CC1CCCCC1 [Example 0817] | < 1000 nM | – | < 1000 nM

From patent US9783536B2, “Nitrogen-containing heterocyclic compound or salt thereof” (FUJIFILM Corporation, priority 2013, dated 2017)
